Experimental data taken from patent publication US9133237B2, “Cyclic peptides with an anti-parasitic activity” (priority 2009, dated 2015).

Tests used:
[1] = tested on: HeLa cancer cells (cervical cancer); assay type: cell-based
Method: (§1) The synthesized cyclic peptides were subject to tests in vitro on human fibroblasts infected by Toxoplasma gondii (Toxo), on non-infected human fibroblasts (HFF) and on HeLa cancer cells (cervical cancer) and MCF-7 cancer cells (breast cancer). Their respective efficiencies were tested at 90 nM as a preliminary test. The results are illustrated in Figure 1.

[2] = tested on: MCF-7 cancer cells (breast cancer); assay type: cell-based
Method: as §1

Toxoplasma gondii = assay type: cell-based
Method: as §1

[3] = tested on: non-infected human fibroblasts (HFF); assay type: cell-based
Method: as §1

[4] = tested on: cysts (bradyzoite form) of murine brains; assay: ex vivo treatment of cysts of murine brains, re-inoculated intraperitoneally to mice; assay type: in vivo, Toxoplasma gondii; conditions: cysts treated ex vivo at 200 nM for 7 days, Figure 3
Method: The cyclic peptide (IV′f) was then tested on cysts (bradyzoite form) of murine brains ex vivo at 200 nM (Figure 3). The cysts after treatment for 7 days with the cyclic peptide (IV′f) were re-inoculated intraperitonally to the mice.

EC50 [1]: 474 nM
EC90 [1]: 1010 nM
EC50 [2]: 533 nM
SMILES: C[C@@H](O)C(=O)CCCCC[C@@H]1NC(=O)[C@H]2CCCN2C(=O)[C@H](Cc2ccccc2)NC(=O)C(C)(C)NC1=O [(IV′f), (3S,9S,14aR)-9-benzyl-3-((R)-7-hydroxy-6-oxooctyl)-6,6-dimethyldecahydropyrrolo[1,2-a][1,4,7,10]tetraazacyclododecine-1,4,7,10-tetraone]
EC50 (Toxoplasma gondii): 28.6 nM
EC90 (Toxoplasma gondii): 79.7 nM
efficiency in preliminary test (Toxoplasma gondii; 90 nM, Figure 1): interesting preliminary results
activity compared with apicidin (Toxoplasma gondii; Figure 2): activity close to that of apicidin
effectiveness (Toxoplasma gondii; Figure 2): very good effectiveness, of the order of the nanomolar
efficiency compared with pyrimethamine (Toxoplasma gondii; Figure 2): much greater efficiency relatively to pyrimethamine
EC50 [3]: 647 nM
EC90 [3]: 4110 nM
cysts in mice after injection of treated cysts [4]: do not exhibit any cyst
